Measurements: paper PMC3820767, “Turning Defense into Offense: Defensin Mimetics as Novel Antibiotics Targeting Lipid II” (PLoS Pathogens, 2013)

What was measured:
[1] = Surface Plasmon Resonance binding to immobilized 3-Lipid II; conditions: SPR; for Binding on Lipid II?: Table S3, initial determination at 10 µM
Summary of the method: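 Binding was measured by Surface Plasmon Resonance on a BIAcore T100 instrument at 25°C. Peptides were injected over the sensor flow-cells at 30 µl/min in running buffer of 10 mM HEPES, 150 mM NaCl, 0.05% surfactant P20, pH 7.4 (±3 mM EDTA) with 10% DMSO. Control flow-cell signals were subtracted, surfaces were regenerated with 50 mM NaOH, and isotherms were fitted with BIAcore software.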

[2] = tested on: Streptococcus pneumonia (PRSP) MMX884; experiment: Broth microdilution susceptibility testing (CLSI); type: cell-based, Streptococcus pneumoniae; conditions: Streptococcus pneumoniae, PRSP, read-out: MIC Streptococcus pneumonia (PRSP) 884-NA
Procedure: The antibacterial activity of defensin mimetics against Staphylococcus aureus ATCC 29213 and Escherichia coli 25922 was carried out in a 96-well turbidimetric assay essentially as described previously with the following modifications: bacteria were exposed for 30 min to compounds in 10 mM phosphate buffer containing 5% DMSO prior to addition of 2× Muller-Hinton medium. Bacterial growth was monitored for 12 hours and data were analyzed as described. Determination of MICs was performed by Micromyx, LLC (Kalamazoo, Michigan) according to CLSI standards.

[3] = tested on: Staphylococcus aureus ATCC 29213; experiment: Antibacterial killing, 96-well turbidimetric (modified vCC) assay; type: cell-based; conditions: concentration resulting in 100% killing after 30 min exposure, modified vCC assay
Summary of the method: (§1)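 Bacteria (E. coli, S. aureus) are first held with test compound in 10 mM phosphate buffer, 5% DMSO, for 30 min. Double-strength Mueller-Hinton medium is then added and turbidity tracked for 12 hours. MICs against pneumococci use the CLSI procedure.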

[4] = tested on: Escherichia coli ATCC 25922; experiment: as above; type: cell-based; conditions: for active against E.coli (IC100%): Table S3, concentration at which 100% killing occurred, no bacterial regrowth, No = not active; for Bacterial Killing E. coli: concentration resulting in 100% killing after 30 min exposure, modified vCC assay
Summary of the method: as §1

[5] = Cytotoxicity by MTT assay; type: cell-based, human; conditions: human, Caco-2 cells; concentration resulting in 50% cell survival, MTT, 24 h; read-out: Cytotoxicity (C50%) Caco-2
[6] = tested on: S. aureus MMX100 (ATCC 29213); experiment: Macromolecular synthesis assays (mechanism of action); type: cell-based, Staphylococcus aureus
Procedure: Macromolecular synthesis inhibition by BAS00127538 and 1499-1221 were investigated using S. aureus MMX100 (ATCC 29213). Cells were grown at 35°C overnight on Tryptic Soy Agar Broth (Remel, Lenexa, KS), and growth from the plate was used to inoculate 15 ml of Mueller Hinton Broth. The culture was grown to early exponential growth phase (OD600 = 0.2 to 0.3) while incubating in a shaker at 35°C and 150 rpm. For each macromolecular assay, the test agents 1499-1221 and BAS00127538 were added at either 0, 0.25, 0.5, 1, 2, or 4, -fold their respective MIC values for S. aureus ATCC 29213.
For DNA and protein synthesis, 100 µl of cell culture reaching early exponential phase was added to triplicate wells containing various concentrations of test compound or control antibiotics (2.5 µl) at 40× the final concentration in 100% DMSO (0.1% methanol in water for Rifampicin). A 2.5% DMSO treated culture served as the “no drug” control for all experiments. Cells were added in 1.25× strength MHB to account for the volume of drug added to each reaction, or in M9 minimal medium for protein synthesis reactions. Following a 5 min incubation at room temperature either [^3H]Thymidine (DNA synthesis) or [^3H]Leucine (protein synthesis) was added at 0.5–1.0 µCi per reaction, depending on the experiment. Reactions were allowed to proceed at room temperature for 15–40 min and then stopped by adding 12 µl of cold 5% trichloroacetic acid (TCA) or 5% TCA/2% casamino acids (protein synthesis). Reactions were incubated on ice for 30 min and the TCA precipitated material was collected on a 25 mm GF/1.2 µm PES 96 well filter plate (Corning). After washing five times with 200 µl per well of cold 5% TCA, the filters were allowed to dry, and then counted using a Packard Top Count microplate scintillation counter.
For cell wall synthesis, bacterial cells in early exponential growth phase were transferred to M9 minimal medium and added to 1.5 ml eppendorf tubes (100 µl/tube) containing various concentrations of test compound or control antibiotics (2.5 µl) at 40× the final concentration in 100% DMSO as described above. Following a 5 min incubation at 37°C, [^14C] N-acetyl-glucosamine (0.4 µCi/reaction) was added to each tube and incubated for 45 min in a 37°C heating block. […] After washing three times with 5 ml of 0.1% SDS, the filters were rinsed two times with 5 ml of deionized water, allowed to dry, and then counted using a Beckman LS3801 liquid scintillation counter.
For lipid synthesis, bacterial cells were grown to early exponential growth phase in MHB and 100 µl was added to 1.5 ml Eppendorf tubes (in triplicate) containing various concentrations of test compound or control antibiotics as described above. […] Samples were then counted via liquid scintillation counting. […]

[7] = NMR interaction with Lipid II; type: binding; conditions: 1D proton chemical shift changes on addition to 3-Lipid II
Procedure: The NMR samples consisted of 0.15 mM Lipid II, 0.15 mM BAS00127538 compound, or 0.15 mM Lipid II+0.15 mM BAS00127538 compound. All samples were dissolved in 90% double distilled H20+10% DMSO, incubated for 30 minutes, freeze-dried, and then dissolved in 300 µL of d6-DMSO. NMR experiments were carried out at 25°C on an 800 MHz Bruker Avance NMR spectrometer (800.27 MHz for protons) equipped with a pulse-field gradient unit, four frequency channels, and a triple resonance TXI cryoprobe (Bruker Biospin, Billerica, MA). 1D proton experiments were collected to probe for chemical shift changes and 2D TOCSY (30, 60, and 90 msec spinlock times), 2D NOESY (150 and 300 msec mixing times), and natural abundance ^13C-HSQC experiments were collected to determine proton and carbon chemical shift assignments.

Binding on Lipid II? [1] | Kd ([1]; immobilized 3-Lipid II) | MIC [2] | SMILES | Bacterial Killing S. aureus [3] | active against E.coli (IC100%) [4] | Bacterial Killing E. coli [4] | IC50 at 24 h [5] | inhibition of DNA, lipid or protein synthesis ([6]; 1× MIC) | inhibition of cell wall synthesis ([6]; 1× MIC, [14C]N-acetyl-glucosamine incorporation) | DNA, protein and lipid synthesis ([6]; elevated concentrations (above 1× MIC)) | interaction with Lipid II by NMR [7] | likely primary mechanism of action ([6]; mechanism of action studies, Figure S4)
Yes | 1710 nM | 8 µg/mL | CN1/C(=C/C=C/c2cc(-c3ccccc3)cc(-c3ccccc3)[o+]2)C(C)(C)c2ccccc21 [BAS00127538, 2,4-diphenyl-6-[(1E)-3-[(2E)-1,3,3-trimethyl-2,3-dihydro-1H-indol-2-ylidene]prop-1-en-1-yl]-1$l^4-pyran-1-ylium] | 0.244 µM | 7,8 µM | 7.8 µM | 2700 nM | not DNA, lipid or protein synthesis | significantly inhibited cell wall synthesis | reduced | found to interact | –
No | – | > 8 µg/mL | CN(C)c1ccc(/C=C/c2cc(-c3ccccc3)[o+]c(-c3ccccc3)c2)cc1 [Compound 1499-1221] | 0.031 µM | 125 µM | 125 µM | 8900 nM | – | – | – | could not be confirmed | membrane perturbation
